Laboratory results from the NIST ThermoML archive (doi:10.1021/je700265d).
Where “and” joins values, the source holds several entries; their conditions need not be identical. Equal entries are not always repeated. Numbers after ± are expanded uncertainties.

Experiment: mn = molality of the nth substance listed, in mol/kg
Conditions: Liquid, Vibrating tube method

[Na+].[OH-] [sodium hydroxide] + O
mass density
Conditions | 2000 kPa | 10000 kPa
323.15 K, m1 = 0.09892 | 993.08 ± 2 kg/m3 [middle of 4 runs] | –
323.15 K, m1 = 0.1004 | – | 996.538 ± 2 kg/m3 and 996.527 ± 2 kg/m3
323.15 K, m1 = 0.1011 | – | 996.561 ± 2 kg/m3 and 996.552 ± 2 kg/m3
323.15 K, m1 = 0.1999 | 997.265 ± 2 kg/m3 | –
323.15 K, m1 = 0.2008 | – | 1000.68 ± 2 kg/m3 and 1000.69 ± 2 kg/m3
323.15 K, m1 = 0.4993 | – | 1012.82 ± 2 kg/m3
323.15 K, m1 = 0.4998 | 1009.52 ± 2 kg/m3 and 1009.53 ± 2 kg/m3 | –
323.15 K, m1 = 1.002 | – | 1032.59 ± 2.1 kg/m3
323.15 K, m1 = 1.006 | 1029.58 ± 2.1 kg/m3 and 1029.59 ± 2.1 kg/m3 | –
323.15 K, m1 = 1.998 | – | 1069.82 ± 2.2 kg/m3
323.15 K, m1 = 2.006 | 1067.14 ± 2.2 kg/m3 | –
323.15 K, m1 = 2.994 | 1102.23 ± 2.2 kg/m3 and 1102.25 ± 2.2 kg/m3 | –
323.15 K, m1 = 2.999 | – | 1104.9 ± 2.3 kg/m3
323.15 K, m1 = 4 | 1135.56 ± 2.3 kg/m3 and 1135.59 ± 2.3 kg/m3 | 1137.82 ± 2.3 kg/m3
323.15 K, m1 = 4.927 | 1164.37 ± 2.4 kg/m3 and 1164.36 ± 2.4 kg/m3 | –
323.15 K, m1 = 5.002 | – | 1168.71 ± 2.4 kg/m3
323.15 K, m1 = 5.963 | 1194.98 ± 2.5 kg/m3 | –
323.15 K, m1 = 5.984 | – | 1197.21 ± 2.5 kg/m3
323.15 K, m1 = 6.887 | 1219.57 ± 2.5 kg/m3 | –
323.15 K, m1 = 6.998 | – | 1224.73 ± 2.6 kg/m3
323.15 K, m1 = 8 | 1248.12 ± 2.6 kg/m3 | –
323.15 K, m1 = 8.191 | – | 1254.93 ± 2.7 kg/m3
373.15 K, m1 = 0.1071 | – | 967.434 ± 1.9 kg/m3 and 967.432 ± 1.9 kg/m3
373.15 K, m1 = 0.2063 | – | 971.522 ± 2 kg/m3
373.15 K, m1 = 0.5006 | – | 983.362 ± 2 kg/m3
373.15 K, m1 = 1.007 | – | 1003.1 ± 2 kg/m3
373.15 K, m1 = 1.998 | – | 1039.6 ± 2.1 kg/m3
373.15 K, m1 = 3 | – | 1074.35 ± 2.2 kg/m3
373.15 K, m1 = 3.968 | – | 1105.88 ± 2.3 kg/m3
373.15 K, m1 = 4.987 | – | 1137.02 ± 2.3 kg/m3
373.15 K, m1 = 5.995 | – | 1165.76 ± 2.4 kg/m3
373.15 K, m1 = 7 | – | 1192.66 ± 2.5 kg/m3 and 1192.78 ± 2.5 kg/m3
373.15 K, m1 = 8.191 | – | 1222.53 ± 2.6 kg/m3
423.15 K, m1 = 0.102 | – | 926.887 ± 1.9 kg/m3 and 926.893 ± 1.9 kg/m3
423.15 K, m1 = 0.2019 | – | 931.217 ± 1.9 kg/m3
423.15 K, m1 = 0.4993 | – | 943.749 ± 1.9 kg/m3
423.15 K, m1 = 1.004 | – | 964.154 ± 1.9 kg/m3
423.15 K, m1 = 2.002 | – | 1002.15 ± 2 kg/m3
423.15 K, m1 = 3.005 | – | 1037.71 ± 2.1 kg/m3
423.15 K, m1 = 4.007 | – | 1070.87 ± 2.2 kg/m3
423.15 K, m1 = 5.013 | – | 1101.94 ± 2.3 kg/m3 and 1102 ± 2.3 kg/m3
423.15 K, m1 = 5.983 | – | 1129.99 ± 2.3 kg/m3
423.15 K, m1 = 6.994 | – | 1157.33 ± 2.4 kg/m3
423.15 K, m1 = 7.997 | – | 1182.78 ± 2.5 kg/m3
473.15 K, m1 = 0.1008 | – | 875.988 ± 1.8 kg/m3 and 876.005 ± 1.8 kg/m3 and 876.003 ± 1.8 kg/m3
473.15 K, m1 = 0.1998 | – | 880.725 ± 1.8 kg/m3
473.15 K, m1 = 0.498 | – | 894.456 ± 1.8 kg/m3 and 894.426 ± 1.8 kg/m3
473.15 K, m1 = 1 | – | 916.262 ± 1.9 kg/m3
473.15 K, m1 = 1.996 | – | 956.424 ± 1.9 kg/m3 and 956.451 ± 1.9 kg/m3
473.15 K, m1 = 3.001 | – | 993.727 ± 2 kg/m3
473.15 K, m1 = 3.979 | – | 1027.36 ± 2.1 kg/m3
473.15 K, m1 = 4.99 | – | 1059.7 ± 2.2 kg/m3
473.15 K, m1 = 5.981 | – | 1089.06 ± 2.2 kg/m3
473.15 K, m1 = 6.966 | – | 1116.25 ± 2.3 kg/m3 and 1116.27 ± 2.3 kg/m3
473.15 K, m1 = 7.982 | – | 1142.4 ± 2.4 kg/m3
523.15 K, m1 = 0.1 | – | 811.722 ± 1.7 kg/m3 and 811.711 ± 1.7 kg/m3
523.15 K, m1 = 0.2004 | – | 817.364 ± 1.7 kg/m3
523.15 K, m1 = 0.4995 | – | 833.124 ± 1.7 kg/m3 and 833.104 ± 1.7 kg/m3
523.15 K, m1 = 1.002 | – | 857.633 ± 1.8 kg/m3 and 857.68 ± 1.8 kg/m3
523.15 K, m1 = 2.005 | – | 902.001 ± 1.8 kg/m3
523.15 K, m1 = 3.005 | – | 942.171 ± 1.9 kg/m3
523.15 K, m1 = 3.999 | – | 977.951 ± 2 kg/m3
523.15 K, m1 = 5.003 | – | 1011.55 ± 2.1 kg/m3
523.15 K, m1 = 6.005 | – | 1042.56 ± 2.1 kg/m3 and 1042.64 ± 2.1 kg/m3
523.15 K, m1 = 7.002 | – | 1071.15 ± 2.2 kg/m3 and 1071.04 ± 2.2 kg/m3
523.15 K, m1 = 7.999 | – | 1097.71 ± 2.3 kg/m3 and 1097.55 ± 2.3 kg/m3
573.15 K, m1 = 0.1122 | – | 724.654 ± 1.5 kg/m3 and 724.632 ± 1.5 kg/m3
573.15 K, m1 = 0.2173 | – | 732.398 ± 1.5 kg/m3 and 732.406 ± 1.5 kg/m3
573.15 K, m1 = 0.5495 | – | 754.575 ± 1.6 kg/m3 and 754.588 ± 1.6 kg/m3
573.15 K, m1 = 1.105 | – | 787.201 ± 1.6 kg/m3 and 787.19 ± 1.6 kg/m3
573.15 K, m1 = 1.996 | – | 832.976 ± 1.7 kg/m3 and 833.161 ± 1.7 kg/m3
573.15 K, m1 = 3.004 | – | 878.767 ± 1.8 kg/m3
573.15 K, m1 = 3.998 | – | 918.89 ± 1.9 kg/m3
573.15 K, m1 = 4.999 | – | 955.585 ± 2 kg/m3
573.15 K, m1 = 6.004 | – | 989.12 ± 2 kg/m3
573.15 K, m1 = 6.999 | – | 1019.78 ± 2.1 kg/m3
573.15 K, m1 = 7.997 | – | 1047.99 ± 2.2 kg/m3
